Test [1] has as its target Larg1 (lpg0081, 16–428aa) (Legionella pneumophila, UniProt Q5ZZD0).
Another test addresses Larg1 (Lpg0081) (Legionella pneumophila, UniProt Q5ZZD0).

Chain of Larg1 (lpg0081, 16–428aa) (Q5ZZD0 16-428 limits assumed): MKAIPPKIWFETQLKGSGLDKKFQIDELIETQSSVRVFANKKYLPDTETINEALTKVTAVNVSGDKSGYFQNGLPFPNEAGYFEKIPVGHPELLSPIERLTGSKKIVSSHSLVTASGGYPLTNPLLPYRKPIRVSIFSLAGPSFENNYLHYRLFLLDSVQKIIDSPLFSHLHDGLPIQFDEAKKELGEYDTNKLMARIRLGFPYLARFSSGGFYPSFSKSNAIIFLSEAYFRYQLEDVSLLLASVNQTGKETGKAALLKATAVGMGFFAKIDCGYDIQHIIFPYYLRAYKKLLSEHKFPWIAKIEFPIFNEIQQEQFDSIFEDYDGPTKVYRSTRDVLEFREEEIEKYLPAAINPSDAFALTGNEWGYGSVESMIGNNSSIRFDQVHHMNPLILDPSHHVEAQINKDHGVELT
Chain of Larg1 (Lpg0081) (Q5ZZD0 1-441 limits assumed): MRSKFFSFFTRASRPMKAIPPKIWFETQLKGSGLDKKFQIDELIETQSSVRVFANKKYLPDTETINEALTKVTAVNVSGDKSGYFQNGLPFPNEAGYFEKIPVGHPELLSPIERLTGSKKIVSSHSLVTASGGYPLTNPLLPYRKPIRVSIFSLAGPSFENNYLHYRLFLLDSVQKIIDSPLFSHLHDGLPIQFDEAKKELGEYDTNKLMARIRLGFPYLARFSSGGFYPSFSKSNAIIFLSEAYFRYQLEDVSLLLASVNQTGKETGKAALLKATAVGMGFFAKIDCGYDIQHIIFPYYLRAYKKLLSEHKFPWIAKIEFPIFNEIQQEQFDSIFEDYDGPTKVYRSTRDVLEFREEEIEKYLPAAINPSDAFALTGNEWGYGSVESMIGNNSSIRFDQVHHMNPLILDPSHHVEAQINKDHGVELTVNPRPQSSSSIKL

Broadly, the Kd is the free concentration of one partner at which half of the binding sites on the other are occupied at equilibrium, for simple one-to-one binding. Turning to `Nc1ncnc2c1ncn2[C@@H]1O[C@H](COP(=O)(O)OP(=O)(O)OC[C@H]2OC(O)[C@H](O)[C@@H]2O)[C@@H](O)[C@H]1O` (some centres unmarked) [ADPR], the “X-ray crystal structure, 2.32 Å” value in test [1] is “to determine the structure of the Larg1‐ADPR complex (PDB:7W3S)”. This compound came in with a Kd on Larg1 (Lpg0081) of 3.87 µM.

Values taken from PMC10989772 (mLife, 2022).
